Data reported in patent US20240216357A1 (SICHUAN HUIYU PHARMACEUTICAL CO., LTD., priority 2021, published 2024).
Where a name gives a salt, the structure may show the parent alone. Read-outs that look alike come from different tables or passages of the source.

Legend:
NCI-H1417 cells = test: In vitro cell proliferation detection (CellTiter-Glo, 7 days); assay type: cell-based; settings: Homo sapiens
LSD1 = LSD1 (Homo sapiens (Human), UniProt O60341); test: LSD1 enzyme activity detection (HTRF); assay type: biochemical; settings: HTRF, H3K4me1 substrate; read-out: Inhibition of enzymatic activity of LSD1 IC50
[1] = 168 h, NCI-H1417 cells, 7 days, CellTiter-Glo, read-out: NCI-H1417 proliferation inhibition IC50

SMILES | IC50 (NCI-H1417 cells; [1]) | IC50 (LSD1) | IC50 (NCI-H1417 cells; NCI-H1417, 168 h, read-out: NCI-H1417 proliferation inhibition IC50(nM))
Cc1ccc(-c2c(O)cc(N3CCC(N)CC3)nc2-c2ccc(C#N)c(F)c2)cc1O [Example 60] | 0.49 nM | 0.4 ± 0.2 nM | 
COc1ccc(-c2c(O)cc(N3CCC(N)CC3)nc2-c2ccc(C#N)c(F)c2)cc1N [Example 44] | 28.9 nM | 12.8 ± 4.6 nM | 
Cc1ccc(-c2c(-c3ccc(C#N)c(F)c3)nc(N3CC4CC(C3)C4N)n3ccnc23)cc1O (stereo not shown) [Example 165, 4-(5-(6-amino-3-azabicyclo [3.1.1]heptane-3-yl)-8-(3-hydroxy-4-methylphenyl)imidazolo[1,2-c]pyrimidin-7-yl)-2-fluorobenzonitrile] | 4.68 nM | 3.4 ± 1.5 nM | 
N#Cc1ccc(-c2nc(N3CCC(N)CC3)n3ccnc3c2-c2ccc3oc(=O)[nH]c3c2)cc1F [Example 129, 4-(5-(4-aminopiperidin-1-yl)-8-(2-oxo-2,3-dihydrobenzo[d]oxazol-5-yl)imidazolo[1,2-c]pyrimidin-7-yl)-2-fluorobenzonitrile] | 112 nM | 0.61 ± 0.13 nM | 
Cc1noc2cc(-c3c(C#N)cc(N4CCC(N)CC4)nc3-c3ccc(C#N)c(F)c3)c(F)cc12 [Example 275, 6-(4-aminopiperidin-1-yl)-2-(4-cyano-3-fluorophenyl)-3-(5-fluoro-3-methylbenzo[d]isoxazol-6-yl)isonionitrile] | 3.6 nM | 0.94 nM | 
CN[C@@H]1CCCN(c2nccn3c(-c4ccc(C)cc4)c(-c4ccc(C#N)cc4)cc23)C1 [Example 189, (R)-4-(1-(3-(methylamino)piperidin-1-yl)-6-(p-tolyl)pyrrolo[1,2-a]pyrazin-7-yl)benzonitrile hydrochloride] | 4.04 nM | 0.29 ± 0.11 nM | 
COc1ccc(-c2c(-c3ccc(C#N)c(F)c3)nc(N3CC4CC(C3)C4N)n3ccnc23)cc1O (stereo not shown) [Example 163, 4-(5-(6-amino-3-azabicyclo[3.1.1]heptan-3-yl)-8-(3-hydroxy-4-methoxyphenyl)imidazolo[1,2-c]pyrimidin-7-yl)-2-fluorobenzonitrile hydrochloride] | 9.11 nM | 5.6 ± 1.6 nM | 
Cc1ccc(-c2cnc(N3CCC(N)CC3)c(C#N)c2-c2ccc(C#N)c(F)c2)cc1F [Example 72, 2-(4-aminopiperidin-1-yl)-4-(4-cyano-3-fluorophenyl)-5-(3-fluoro-4-methylphenyl) nicotinitrile] | 12.2 nM | 6.6 ± 1 nM | 
COc1ccc(-c2c(C)nc(N3CCC(N)CC3)c(C#N)c2-c2ccc(C#N)c(F)c2)cc1O [Example 276, 2-(4-aminopiperidin-1-yl)-4-(4-cyano-3-fluorophenyl)-5-(3-hydroxy-4-methoxyphenyl)-6-meth ylpyridine-3-carbonitrile] | 1.1 ± 0.7 nM | 0.1 ± 0.01 nM | 
Cc1ccc(-c2c(-c3ccc(C#N)c(F)c3)nc(N(C)CCCN)n3ccnc23)cc1O [Example 146, 4-(5-((3-aminopropyl) (methyl)amino)-8-(3-hydroxy-4-methylphenyl)imidazolo[1,2-c]pyrimidin-7-yl)-2-fluorobenzonitrile] | 8.9 nM | 0.5 ± 0.2 nM | 
COc1ccc(-c2c(-c3ccc(C#N)c(F)c3)nc(N3CCC(N)CC3)c(C)c2OC)cc1O [Example 101, 4-(6-(4-aminopiperidin-1-yl)-3-(3-hydroxy-4-methoxyphenyl)-4-methoxy-5-methylpyridin-2-yl)-2-fluorobenzonitrile] | 0.917 nM | 1 ± 0.2 nM | 
COc1ccc(-c2c(-c3ccc(C#N)c(F)c3)nc(N3CCC[C@@H](N)C3)n3ccnc23)cc1O [Example 139, (R)-4-(5-(3-aminopiperidin-1-yl)-8-(3-hydroxy-4-methoxyphenyl)imidazolo[1,2-c]pyrimidin-7-yl)-2-fluorobenzonitrile hydrochloride] | 2.83 nM | 0.69 ± 0.18 nM | 
Cc1ccc(-c2c(-c3ccc(C#N)cc3)nc3c(N4CCC[C@@H](N)C4)nccn23)cc1 [Example 5, (R)-4-(8-(3-aminopiperidin-1-yl)-3-(p-tolyl)imidazo[1,2-a]pyrazin-2-yl)benzonitrile hydrochloride] |  |  | 165 nM
